The structures appear in SMILES notation. Structures can show the parent of a compound that is named as a salt.

In general, IC50 refers to the midpoint of a concentration-inhibition curve. A lower IC50 goes with greater potency.

For one assay, the target named is human 5-HT2A receptor (Homo sapiens (Human), UniProt P28223). Briefly: [125I]DOI radioligand binding assay. The conditions noted are these: 0.5 nM [125I]DOI, membranes of COS7 cells transfected with human 5-HT2A receptor. The procedure: For the IP accumulation assay (Example 10), HEK293 cells were transfected while for the DOI binding assay (Example 11) COS7 cells were transfected. Several protocols well known in the art can be used to transfect cells. The following protocol is representative of the transfection procedures used herein for COS7 or 293 cells.
human 5-HT2A receptor, sequence (P28223 whole entry): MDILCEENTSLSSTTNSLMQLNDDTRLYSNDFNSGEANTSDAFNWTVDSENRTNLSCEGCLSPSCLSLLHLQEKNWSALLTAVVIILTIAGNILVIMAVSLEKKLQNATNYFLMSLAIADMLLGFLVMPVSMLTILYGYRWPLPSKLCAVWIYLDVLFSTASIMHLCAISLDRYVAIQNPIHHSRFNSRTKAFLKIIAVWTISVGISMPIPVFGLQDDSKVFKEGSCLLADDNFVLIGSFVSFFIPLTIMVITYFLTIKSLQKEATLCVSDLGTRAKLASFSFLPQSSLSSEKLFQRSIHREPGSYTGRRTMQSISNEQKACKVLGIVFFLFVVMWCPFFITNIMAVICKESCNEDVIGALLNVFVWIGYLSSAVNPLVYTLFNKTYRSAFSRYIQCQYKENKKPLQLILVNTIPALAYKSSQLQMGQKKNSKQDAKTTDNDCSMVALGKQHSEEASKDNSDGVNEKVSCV
On day one, COS-7 cells were plated onto 24 well plates, usually 1×10^5 cells/well or 2×10^5 cells/well, respectively. On day two, the cells were transfected by first mixing 0.25 μg cDNA in 50 μL serum-free DMEM/well and then 2 μl lipofectamine in 50 μL serum-free DMEM/well. The solutions (“transfection media”) were gently mixed and incubated for 15-30 minutes at room temperature. The cells were washed with 0.5 mL PBS and then 400 μL of serum free media was mixed with the transfection media and added to the cells. The cells were then incubated for 3-4 hours at 37° C./5% CO2. Then the transfection media was removed and replaced with 1 mL/well of regular growth media.
Compounds of the invention were tested for their ability to bind to a 5-HT2A receptor clone membrane preparation using a radioligand binding assay. Briefly, COS cells were transiently transfected with a pCMV expression vector containing a human 5-HT2A receptor (for the sequence of the receptor see U.S. Pat. No. 6,541,209, SEQ ID NO:24) as described in Example 9.
COS7 cells transfected with recombinant human 5-HT2A receptors were cultured for 48 hr post transfection, collected, washed with ice-cold phosphate buffered saline, pH7.4 (PBS), and then centrifuged at 48,000×g for 20 min at 4° C. The cell pellet was then resuspended in wash buffer containing 20 mM HEPES pH 7.4 and 0.1 mM EDTA, homogenized on ice using a Brinkman polytron, and recentrifuged at 48,000×g for 20 min. at 4° C. The resultant pellet was then resuspended in 20 mM HEPES, pH 7.4, homogenized on ice, and centrifuged (48,000×g for 20 min at 4° C.). Crude membrane pellets were stored at −80° C. until used for radioligand binding assays.
Radioligand binding assays for human 5-HT2A receptor was conducted using the 5-HT2 agonist [^125]DOI as radioligand. To define nonspecific binding, 10 μM DOI was used for all assays. For competitive binding studies, 0.5 nM [^125]DOI was used and compounds were assayed over a range of 0.01 nM to 10 μM. Assays were conducted in a total volume of 200 μl in 96-well Perkin Elmer GF/C filter plates in assay buffer (50 mM Tris-HCl, pH 7.4, 0.5 mM EDTA, 5 mM MgCl2, and 10 μM pargyline). Assay incubations were performed for 60 min at room temperature and were terminated by rapid filtration under vacuum pressure of the reaction mixture over Whatman GF/C glass fiber filters presoaked in 0.5% PEI using a Brandell cell harvestor. Filters were then washing several times with ice-cold wash buffer (50 mM Tris-HCl, pH 7.4). Plates were then dried at room temperature and counted in a Wallac microBeta scintillation counter.
The compound `Cn1nccc1-c1cc(NC(=O)c2ccno2)ccc1OCCN` [Compound 106, Isoxazole-5-carboxylic acid [4-(2-amino-ethoxy)-3-(2-methyl-2H-pyrazol-3-yl)-phenyl]-amide] had a half-inhibitory concentration (IC50) of 91 nM.

For `Cn1ncc(Cl)c1-c1cc(NC(=O)c2ccc(F)c(C(F)(F)F)c2)ccc1OCCN` [Compound 197, N-[4-(2-amino-ethoxy)-3-(4-chloro-2-methyl-2H-pyrazol-3-yl)-phenyl]-4-fluoro-3-trifluoromethyl-benzamide trifluoroacetate], the concentration for half-maximal inhibition (IC50) came to 1 nM.

Take `Cn1ncc(Cl)c1-c1cc(NC(=O)C2CCC(C(F)(F)F)CC2)ccc1OCCN` (stereo not shown) [Compound 303, 4-trifluoromethyl-cyclohexanecarboxylic acid [4-(2-amino-ethoxy)-3-(4-chloro-2-methyl-2H-pyrazol-3-yl)-phenyl]-amide trifluoroacetate]: the IC50 came out at 0.26 nM.

`Cn1ncc(Cl)c1-c1cc(NC(=O)c2cc(Br)cs2)ccc1OCCN` [Compound 77, 4-bromo-thiophene-2-carboxylic acid [4-(2-amino-ethoxy)-3-(4-chloro-2-methyl-2H-pyrazol-3-yl)-phenyl]-amide trifluoroacetate] yielded a half-maximal inhibitory concentration (IC50) of 1.2 nM.

`Cn1nccc1-c1cc(NC(=O)C(=O)c2ccc(F)cc2)ccc1OCCN` [Compound 32, N-[4-(2-Amino-ethoxy)-3-(2-methyl-2H-pyrazol-3-yl)-phenyl]-2-(4-fluoro-phenyl)-2-oxo-acetamide]: the IC50 turned out to be 0.025 nM. Compared with the last compound, the IC50 is about 48-fold lower.

In a further assay the test system is JC virus.
Experiment: not given
The conditions noted are these: cited from earlier work.
For the compound `Cc1nc2sccn2c(=O)c1CCN1CCC(=C(c2ccc(F)cc2)c2ccc(F)cc2)CC1` [ritanserin], the “JC virus infection of human glial cells” value was “inhibited”.

Regarding `O=C(c1ccc(F)cc1)C1CCN(CCn2c(=O)[nH]c3ccccc3c2=O)CC1` [ketanserin], the “JC virus infection of human glial cells” value was “inhibited”.

Values taken from patent US8664258B2, “Primary amines and derivatives thereof as modulators of the 5-HT2A serotonin receptor useful for the treatment of disorders related thereto” (Arena Pharmaceuticals, Inc., priority 2006, dated 2014).
